Measurements reported in ChEMBL document CHEMBL4665629, “An optimised series of substituted N-phenylpyrrolamides as DNA gyrase B inhibitors” (Eur J Med Chem, 2019).

What was measured:
Escherichia coli [1] = test: Antibacterial activity against efflux pump d effect ive Escherichia coli JW5503 harbouring tolC mutant assessed as bacterial growth inhibition at 50 uM incubated for 24 hrs by CLSI protocol based broth microdilution assay relative to control; assay type: functional
Escherichia coli [2] = test: Antibacterial activity against outer membrane impaired Escherichia coli JD17464 harboring lpxC mutant assessed as bacterial growth inhibition at 50 uM incubated for 24 hrs by CLSI protocol based broth microdilution assay relative to control; assay type: functional
Pseudomonas aeruginosa = test: Antibacterial activity against Pseudomonas aeruginosa ATCC 27853 assessed as bacterial growth inhibition at 50 uM incubated for 24 hrs by CLSI protocol based broth microdilution assay relative to control; assay type: functional
Staphylococcus aureus = test: Antibacterial activity against Staphylococcus aureus ATCC 29213 assessed as bacterial growth inhibition at 50 uM incubated for 24 hrs by CLSI protocol based broth microdilution assay relative to control; assay type: functional
Klebsiella pneumoniae = test: Antibacterial activity against Klebsiella pneumoniae ATCC 700603 assessed as bacterial growth inhibition at 50 uM incubated for 24 hrs by CLSI protocol based broth microdilution assay relative to control; assay type: functional
Escherichia coli [3] = test: Antibacterial activity against Escherichia coli ATCC 25922 assessed as bacterial growth inhibition at 50 uM incubated for 24 hrs by CLSI protocol based broth microdilution assay relative to control; assay type: functional
Enterococcus faecium = test: Antibacterial activity against Enterococcus faecium ATCC 35667 assessed as bacterial growth inhibition at 50 uM incubated for 24 hrs by CLSI protocol based broth microdilution assay relative to control; assay type: functional
Enterococcus faecalis = test: Antibacterial activity against Enterococcus faecalis ATCC 29212 assessed as bacterial growth inhibition at 50 uM incubated for 24 hrs by CLSI protocol based broth microdilution assay relative to control; assay type: functional
Klebsiella aerogenes = test: Antibacterial activity against Enterobacter aerogenes ATCC 13408 assessed as bacterial growth inhibition at 50 uM incubated for 24 hrs by CLSI protocol based broth microdilution assay relative to control; assay type: functional
Acinetobacter baumannii = test: Antibacterial activity against Acinetobacter baumannii ATCC 19606 assessed as bacterial growth inhibition at 50 uM incubated for 24 hrs by CLSI protocol based broth microdilution assay relative to control; assay type: functional; conditions: ATCC 19606 = CIP 70.34 = JCM 6841
[4] = biological target: DNA gyrase (Escherichia coli) (UniProt P0AES6+P0AES4); test: Inhibition of Escherichia coli DNA gyrase assessed as residual activity at 1 uM using biotinylated oligonucleotide as substrate incubated for 30 mins in presence of ATP by fluorescence-based microplate reader assay relative to control; assay type: protein-complex assay
DNA gyrase = DNA gyrase (Escherichia coli, UniProt P0AES4+P0AES6); test: Inhibition of Escherichia coli DNA gyrase using biotinylated oligonucleotide as substrate incubated for 30 mins in presence of ATP by fluorescence-based microplate reader assay; assay type: protein-complex assay

Compound: Cc1[nH]c(C(=O)Nc2ccc(S(=O)(=O)NCC(=O)O)cc2)c(Cl)c1Cl
- inhibition at 50 µM (Escherichia coli [1]): 6%
- inhibition at 50 µM (Escherichia coli [2]): 1%
- inhibition at 50 µM (Pseudomonas aeruginosa): -4%
- inhibition at 50 µM (Staphylococcus aureus): 4%
- inhibition at 50 µM (Klebsiella pneumoniae): 7%
- inhibition at 50 µM (Escherichia coli [3]): 7%
- inhibition at 50 µM (Enterococcus faecium): 3%
- inhibition at 50 µM (Enterococcus faecalis): 9%
- inhibition at 50 µM (Klebsiella aerogenes): 7%
- inhibition at 50 µM (Acinetobacter baumannii): 5%
- Activity [4]: 87%

Compound: CCOC(=O)C(NC(=O)c1ccc(NC(=O)c2cc(Br)c(Br)[nH]2)cc1)C(=O)OCC
- inhibition at 50 µM (Escherichia coli [1]): -8%
- inhibition at 50 µM (Escherichia coli [2]): 2%
- inhibition at 50 µM (Pseudomonas aeruginosa): 5%
- inhibition at 50 µM (Staphylococcus aureus): 12%
- inhibition at 50 µM (Klebsiella pneumoniae): 1%
- inhibition at 50 µM (Escherichia coli [3]): 9%
- inhibition at 50 µM (Enterococcus faecium): -8%
- inhibition at 50 µM (Enterococcus faecalis): 8%
- inhibition at 50 µM (Klebsiella aerogenes): 1%
- inhibition at 50 µM (Acinetobacter baumannii): 3%
- Activity [4]: 78%

Compound: Cc1[nH]c(C(=O)Nc2ccc(S(N)(=O)=O)cc2)c(Cl)c1Cl
- inhibition at 50 µM (Escherichia coli [1]): 2%
- inhibition at 50 µM (Escherichia coli [2]): 4%
- inhibition at 50 µM (Pseudomonas aeruginosa): -4%
- inhibition at 50 µM (Staphylococcus aureus): 12%
- inhibition at 50 µM (Klebsiella pneumoniae): 4%
- inhibition at 50 µM (Escherichia coli [3]): 13%
- inhibition at 50 µM (Enterococcus faecium): 54%
- inhibition at 50 µM (Enterococcus faecalis): 6%
- inhibition at 50 µM (Klebsiella aerogenes): 1%
- inhibition at 50 µM (Acinetobacter baumannii): 6%
- Activity [4]: 82%

Compound: CC(C)(C)OC(=O)N1CCC(Oc2cc(C(=O)NCC(=O)O)ccc2NC(=O)c2cc(Br)c(Br)[nH]2)CC1
- inhibition at 50 µM (Escherichia coli [1]): -4%
- inhibition at 50 µM (Escherichia coli [2]): -6%
- inhibition at 50 µM (Pseudomonas aeruginosa): 6%
- inhibition at 50 µM (Staphylococcus aureus): -18%
- inhibition at 50 µM (Klebsiella pneumoniae): 9%
- inhibition at 50 µM (Escherichia coli [3]): -14%
- inhibition at 50 µM (Enterococcus faecium): -76%
- inhibition at 50 µM (Klebsiella aerogenes): -14%
- inhibition at 50 µM (Acinetobacter baumannii): -4%
- IC50 (DNA gyrase): 630 nM

Compound: COC(=O)CNS(=O)(=O)c1ccc(NC(=O)c2[nH]c(C)c(Cl)c2Cl)cc1
- inhibition at 50 µM (Escherichia coli [1]): -1%
- inhibition at 50 µM (Escherichia coli [2]): 4%
- inhibition at 50 µM (Pseudomonas aeruginosa): 5%
- inhibition at 50 µM (Staphylococcus aureus): 12%
- inhibition at 50 µM (Klebsiella pneumoniae): 1%
- inhibition at 50 µM (Escherichia coli [3]): 18%
- inhibition at 50 µM (Enterococcus faecium): 34%
- inhibition at 50 µM (Enterococcus faecalis): 8%
- inhibition at 50 µM (Klebsiella aerogenes): -4%
- inhibition at 50 µM (Acinetobacter baumannii): 9%
- Activity [4]: 87%

Compound: COC(=O)[C@@H](C)NC(=O)c1ccc(NC(=O)c2[nH]c(C)c(Cl)c2Cl)c(OC2CCN(C(=O)OC(C)(C)C)CC2)c1
- inhibition at 50 µM (Escherichia coli [1]): 40%
- inhibition at 50 µM (Escherichia coli [2]): 44%
- inhibition at 50 µM (Pseudomonas aeruginosa): 33%
- inhibition at 50 µM (Staphylococcus aureus): 30%
- inhibition at 50 µM (Klebsiella pneumoniae): 2%
- inhibition at 50 µM (Escherichia coli [3]): 18%
- inhibition at 50 µM (Enterococcus faecium): 52%
- inhibition at 50 µM (Klebsiella aerogenes): 22%
- inhibition at 50 µM (Acinetobacter baumannii): 36%
- Activity [4]: 94%

Compound: COC(=O)CNC(=O)c1ccc(NC(=O)c2[nH]c(C)c(Cl)c2Cl)c(O[C@H]2CCN(C(=O)OC(C)(C)C)C2)c1
- inhibition at 50 µM (Escherichia coli [1]): -4%
- inhibition at 50 µM (Escherichia coli [2]): 30%
- inhibition at 50 µM (Pseudomonas aeruginosa): 12%
- inhibition at 50 µM (Staphylococcus aureus): 12%
- inhibition at 50 µM (Klebsiella pneumoniae): 8%
- inhibition at 50 µM (Escherichia coli [3]): 10%
- inhibition at 50 µM (Enterococcus faecium): 23%
- inhibition at 50 µM (Klebsiella aerogenes): 7%
- inhibition at 50 µM (Acinetobacter baumannii): 9%
- Activity [4]: 93%

Compound: COC(=O)[C@@H](C)NC(=O)c1ccc(NC(=O)c2[nH]c(C)c(Cl)c2Cl)c(OC(C)C)c1
- inhibition at 50 µM (Escherichia coli [1]): 11%
- inhibition at 50 µM (Escherichia coli [2]): 27%
- inhibition at 50 µM (Pseudomonas aeruginosa): 5%
- inhibition at 50 µM (Staphylococcus aureus): 29%
- inhibition at 50 µM (Klebsiella pneumoniae): 16%
- inhibition at 50 µM (Escherichia coli [3]): 12%
- inhibition at 50 µM (Enterococcus faecium): -15%
- inhibition at 50 µM (Enterococcus faecalis): -41%
- inhibition at 50 µM (Klebsiella aerogenes): 12%
- inhibition at 50 µM (Acinetobacter baumannii): 8%
- Activity [4]: 87%

Compound: Cc1[nH]c(C(=O)Nc2ccc(S(=O)(=O)Nc3nccs3)cc2)c(Cl)c1Cl
- inhibition at 50 µM (Escherichia coli [1]): 5%
- inhibition at 50 µM (Escherichia coli [2]): 17%
- inhibition at 50 µM (Pseudomonas aeruginosa): 10%
- inhibition at 50 µM (Staphylococcus aureus): -2%
- inhibition at 50 µM (Klebsiella pneumoniae): 1%
- inhibition at 50 µM (Escherichia coli [3]): 13%
- inhibition at 50 µM (Enterococcus faecium): 43%
- inhibition at 50 µM (Enterococcus faecalis): 23%
- inhibition at 50 µM (Klebsiella aerogenes): -2%
- inhibition at 50 µM (Acinetobacter baumannii): 10%
- Activity [4]: 100%
